Test results taken from PMC11302339, “A series of pyrimidine-based antifungals with anti-mold activity disrupt ER function in Aspergillus fumigatus” (Microbiology Spectrum, 2024).

Tests used:
[1] = system: HeLa cells; assay: Cytotoxicity by LDH release; format: cell-based, human; conditions: 24 hours
Method: (§1) HepG2 [American Type Culture Collection (ATCC), HB-8065], HeLa (ATCC, CCL-2), and A549 (ATCC, CCL-185) cells were maintained and cultured in Dulbecco’s modified Eagle medium (Gibco, Cat # 11965–092) with 10% FBS and 1% penicillin/streptomycin at 37°C with 5% CO2. Cells were seeded in 96-well plates at a density of 1.25 × 10^4 cells/well and incubated overnight at 37°C with 5% CO2; then, media were removed and replaced with media containing a twofold drug dilution series with equal DMSO across all wells. Cells were incubated for an additional 24 hours, then the supernatant was removed and used to quantify lactate dehydrogenase release using the CyQuant LDH assay kit (Invitrogen, Cat # C20300) following the manufacturers’ directions. LDH was normalized to a maximum lysis control treated with Triton-X. HeLa and A549 cells were purchased in 2023, and the cells used for these studies were directly from fresh vials. HepG2 cells for these studies were used from a fresh, low passage (P3) vial saved directly from purchased stocks.

[2] = system: A549 cells; assay: Cytotoxicity by LDH release; format: cell-based, human; conditions: A549, 24 hours
Method: as §1

[3] = system: HepG2 cells; assay: Cytotoxicity by LDH release; format: cell-based, human; conditions: HepG2, 24 hours
Method: as §1

[4] = system: A. fumigatus; assay: MIC testing in the presence of 10% serum; format: cell-based, Aspergillus fumigatus
Method: MICs were determined using Clinical and Laboratory Standards Institute guidelines ([48], [49]). All yeasts were cultured overnight in 3 mL YPD at 30°C, then washed twice in sterile phosphate-buffered saline (PBS). Twofold serial dilutions of each drug were prepared in RMPI + MOPS, then 1 × 10^3 cells were added per well. For mold species, wells were inoculated with 1.25 × 10^3 conidia per well. Plates were incubated at 37°C for 24 (Candida spp. and S. cerevisiae), 48 (Aspergillus spp., M. circinelloides, S. apiospermum, and L. prolificans), or 72 (C. neoformans and F. oxysporum) hours. S. cerevisiae BY4743 MICs were tested in YPD due to nutritional requirements of this strain. Each assay was performed in technical duplicate in at least two independent experiments performed on different days.

[5] = system: S. cerevisiae heterozygous mutants; assay: Chemical haploinsufficiency screen and spot dilution validation; format: cell-based, Saccharomyces cerevisiae; conditions: YPD 32 µg/mL 1, relative to WT
Method: Chemical genetics screening was performed using the Saccharomyces heterozygous deletion collection (Transomic Technologies, TKY3504). Mutant strains were grown overnight in 200 µL YPD in a 96-well plate then pinned into 25 µL PBS using a 96-floating pin multiblot replicator (V&P Scientific Inc, Cat # 408FP6) and library copier (V&P Scientific Inc, Cat # 381). Cell dilutions were then pinned onto an Omni Tray (Nunc, Cat # 242811) single-well plate containing YPD with DMSO or 32 µg/mL 1 for a total of 384 spots per plate. Each plate contained at least one wild type control. Plates were incubated at 30°C and imaged every 24 hours for 4 days. Hits were called by visual evaluation. To validate hits and score growth phenotypes, serial dilutions of OD = 1.0, 0.1, 0.01, and 0.001 were prepared for each mutant from a 200 µL YPD overnight culture in a 96-well plate. Three microliters of each dilution was spotted on YPD containing DMSO or 32 µg /mL 1 and incubated for 72 hours at 30°C. The growth of each mutant on 1 was scored compared to wild-type controls as no inhibition (++++), modest (+++), or severe (+/++) growth inhibition.

[6] = system: A. fumigatus ∆ireA; assay: Susceptibility of ∆ireA mutant on GMM plates; format: cell-based, Aspergillus fumigatus; conditions: 72 hours at 30°C, colony diameter ratio
Method: For Aspergillus fumigatus, 5 µL of 1 × 10^4 CEA10 conidia was spotted at the center of GMM plates containing DMSO or 1 µg/mL 1 in combination with DTT, brefeldin A, or tunicamycin. Plates were incubated at 37°C for 72 hours. Representative images of two independent experiments with three biological replicates each were obtained. For Ire1 strains, the cells were prepared as described above but were incubated at 30°C.

[7] = system: C. neoformans H99; assay: ER stress interactions on YPD plates; format: cell-based, Cryptococcus neoformans; conditions: 4 µg/mL 1 on YPD
Method: To determine interactions of 1 with ER stress in Cryptococcus neoformans, an overnight culture of H99 was diluted to 1 × 10^6 CFU/mL, then three 10-fold dilutions were prepared. Three-microliter spots of each cell dilution were plated in triplicate on YPD containing DMSO or 4 µg/mL 1 in combination with DTT, brefeldin A, or tunicamycin. Plates were incubated at 37°C for 72 hours. Images are representative of two independent experiments performed in biological triplicate.

What does the source list for `OC1CC(c2cc(N3CCC(CCc4ccccc4)CC3)ncn2)C1` (stereo not drawn) [compound 1]?
LD50 (LDH release) [1]: 146 µg/mL; LD50 (LDH release) [2]: 198 µg/mL; LD50 (LDH release) [3]: 111 µg/mL; increase in MIC in the presence of 10% serum ([4]; A. fumigatus): 2 fold; MIC ([4]; Aspergillus fumigatus, read-out: MIC w/serum): 32 µg/mL; Growth ([5]; mutant YDR361C BCP1): +++; Growth ([5]; mutant YDR362C TFC6): +++; Growth ([5]; mutant YDR373W FRQ1): +++; Growth ([5]; mutant YDR416W SYF1): +++; Growth ([5]; mutant YER012W PRE1): +++; Growth ([5]; mutant YFR051C RET2): +++; Growth ([5]; mutant YGL047W ALG14): ++; Growth ([5]; mutant YGL116W CDC20): +++; Growth ([5]; mutant YGR190C Dubious_HIP1 overlap): +++; Growth ([5]; mutant YGR191W HIP1): +++; Growth ([5]; mutant YGR216C GPI1): +++; Growth ([5]; mutant YHR062C RPP1): +++; Growth ([5]; mutant YHR068W DYS1): ++; Growth ([5]; mutant YHR072W ERG7): +++; Growth ([5]; mutant YHR107C CDC12): +++; Growth ([5]; mutant YHR122W CIA2): +++; Growth ([5]; mutant YHR143W-A RPC10): ++; Growth ([5]; mutant YIL033C BCY1): +++; Growth ([5]; mutant YIL104C SHQ1): +++; Growth ([5]; mutant YIL109C SEC24): +++; Growth ([5]; mutant YIL144W NDC80): +++; Growth ([5]; mutant YIL147C SLN1): +++; Growth ([5]; mutant YIL150C MCM10): +++; Growth ([5]; mutant YIL171W): ++; Growth ([5]; mutant YIR012W SQT1): +++; Growth ([5]; mutant YKL049C CSE4): +++; Growth ([5]; mutant YKL108W SLD2): ++; Growth ([5]; mutant YKL154W SRP102): ++; Growth ([5]; mutant YKL180W RPL17A): ++; Growth ([5]; mutant YKL189W HYM1): ++; Growth ([5]; mutant YML085C TUB1): +; Growth ([5]; mutant YMR185W RTP1): +++; Growth ([5]; mutant YMR277W FCP1): +++; Growth ([5]; mutant YMR314W PRE5): +++; Growth ([5]; mutant YNL287W SEC21): +++; Growth ([5]; mutant YPL131W RPL5): +++; Growth ([5]; mutant YPL142C (no gene name)): +; Growth ([5]; mutant YPL143W RPL33A): +; Growth ([5]; mutant YPL235W RVB2): +; Growth ([5]; mutant YPL237W SUI3): +; Growth ([5]; mutant YPR035W GLN1): +++; Growth ([5]; mutant YPR136C Dubious_RRP9 overlap): ++; Growth ([5]; mutant YPR181C SEC23): +; Growth ([5]; mutant YPR187W RPO26): +; susceptibility of ∆ireA mutant vs wild type [6]: same susceptibility as wild type; interaction with tunicamycin ([7]; 0.125 µg/mL tunicamycin): antagonistic; interaction with tunicamycin ([7]; 0.25 µg/mL tunicamycin): additive; interaction with DTT ([7]; 37°C, 72 hours): synergistic; interaction with brefeldin A ([7]; 37°C, 72 hours): synergistic
